Source: US20260176289A1, “SMALL MOLECULE INHIBITORS OF KRAS PROTEINS” (Merck Sharp & Dohme LLC, priority 2022, published 2026)
pIC50: −log10 of the molar value.

Tests used:
KRAS-G12D = KRAS-G12D (Homo sapiens, UniProt P01116, G12D); experiment: SOS-catalyzed nucleotide exchange assay (Procedure A, TR-FRET), KRAS-G12D; assay type: biochemical; details: nucleotide exchange, read-out: KRAS G12D GNE IC50
Outline: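 Signal ratio (520/495 nm, excitation 340 nm) reports Bodipy-GDP retention on biotinylated RAS after SOS-catalyzed exchange with 3 mM GTP. SOS was 40 nM, except 160 nM for G12V. Room-temperature exchange lasted 60 min (90 min for G12V), following a 60 min compound preincubation.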

NRAS = NRAS (Homo sapiens, UniProt P01111); experiment: SOS-catalyzed nucleotide exchange assay (Procedure A, TR-FRET), NRAS; assay type: biochemical; details: read-out: NRAS GNE IC50
Chain of NRAS (P01111 with tags, fused parts or gaps): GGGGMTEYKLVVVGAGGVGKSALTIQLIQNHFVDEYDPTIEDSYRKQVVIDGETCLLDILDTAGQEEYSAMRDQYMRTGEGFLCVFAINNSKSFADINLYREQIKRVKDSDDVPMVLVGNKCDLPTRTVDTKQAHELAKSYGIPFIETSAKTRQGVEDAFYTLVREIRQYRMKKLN
Text: Procedure for SOS-Catalyzed Nucleotide Exchange Assay for KRAS-WT, G12C/D/V, G13D, HRAS, and NRAS (Procedure A)
Recombinant KRAS-G12C protein used in this assay has an additional triple mutation (C51S/C80L/C118S). Whereas KRAS-WT, G12D/V, G13D, HRAS and NRAS are in context of their WT protein sequence background. Specifically, the SOS-catalyzed nucleotide exchange assay utilizes a preformed TR-FRET complex containing a specific biotinylated RAS protein (KRAS-WT, G12C/V/D, G13D, HRAS, NRAS; described above) with Bodipy-GDP, and Terbium-streptavidin. Compounds are preincubated with this complex for 60 minutes. Subsequently, recombinant human SOS protein and unlabeled GTP are added to initiate the exchange reaction. Small molecule inhibitors stabilize the Bodipy-GDP complex whereas the untreated protein rapidly exchanges Bodipy-GDP for unlabeled GTP resulting in reduced TR-FRET signal.
To assemble the preformed TR-FRET complexes, each biotinylated RAS protein is diluted to 2 μM in an EDTA Buffer (20 mM HEPES pH 7.5, 50 mM sodium chloride, 10 mM EDTA, and 0.01% Tween) and incubated at room temperature for one hour. This mixture is then further diluted to 90 nM in an Assay Buffer (20 mM HEPES pH 7.5, 150 mM sodium chloride, 10 mM magnesium chloride, and 0.005% Tween) containing 15 nM of Terbium-Streptavidin (Invitrogen, catalog #PV3577) and 900 nM of Bodipy-GDP (Invitrogen, catalog #G22360) and incubated at room temperature for six hours. It should be noted that this preformed TR-FRET complex for each of the RAS protein were made ahead of time, aliquoted and stored at −80° C. until the day of the experiment.
Each test compound (10 mM stock in DMSO) is diluted in DMSO to make a final-10-point, 3-fold dilution and is acoustically dispensed into a 384-well assay plate (Corning, catalog #3820) using an Echo 550 (Labcyte). Each well of the assay plate receives 3 μL of a specific 3×RAS preformed TR-FRET complex and 3 μL of Assay Buffer and is incubated at room temperature for 60 minutes (preincubation time). Each well then receives 3 μL of 3×recombinant human SOS protein and GTP (Sigma, G8877) in Assay Buffer and is incubated at room temperature for 30 minutes (G13D), 60 minutes (KRAS WT/G12C/D, H/NRAS) or 90 minutes for G12V. […]
The time-resolved fluorescence resonance energy transfer (TR-FRET) signal is measured on an Envision (PerkinElmer) plate reader: Excitation filter=340 nm; emission 1=495 nm; emission2=520 nm; dichroic mirror=D400/D505; delay time=[…]. The signal of each well is determined as the ratio of the emission at 520 nm to that at 495 nm. Percent effect of each well is determined after normalization to control wells containing DMSO (no effect) or a saturating concentration of inhibitor (max effect). […]

Chain of KRAS-G12D (P01116 with tags, fused parts or gaps isoform P01116-2 G12D): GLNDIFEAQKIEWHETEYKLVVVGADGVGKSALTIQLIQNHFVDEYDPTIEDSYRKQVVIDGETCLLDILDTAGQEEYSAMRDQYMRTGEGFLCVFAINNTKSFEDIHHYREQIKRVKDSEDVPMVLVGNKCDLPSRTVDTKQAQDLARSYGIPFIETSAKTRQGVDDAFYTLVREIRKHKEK

C#Cc1c(F)ccc2cc(O)cc(-c3nccc4c5c(N6CCOC[C@@](C)(O)C6)nc(OC[C@@]67CCCN6C[C@H](F)C7)nc5n(C)c34)c12 [Ex-18, (S)-4-(8-(8-ethynyl-7-fluoro-3-hydroxynaphthalen-1-yl)-2-(((2R,7aS)-2-fluorotetrahydro-1H-pyrrolizin-7a(5H)-yl)methoxy)-9-methyl-9H-pyrido[4′,3′:4,5]pyrrolo[2,3-d]pyrimidin-4-yl)-6-methyl-1,4-oxazepan-6-ol]
pIC50 (KRAS-G12D): 8.94
pIC50 (NRAS): 5.05
